Data published in paper PMC12203311, “Design, synthesis, in silico and in vitro evaluation of pyrrole–indole hybrids as dual tubulin and aromatase inhibitors with potent anticancer activities” (RSC Advances, 2025).

Legend:
[1] = tested on: T47D breast cancer cell line; test: Cytotoxicity MTT assay, T47D; assay type: cell-based, human; settings: for IC50: MTT, 48 hours; for activity against T47D in two-dose screen: 10 µM and 50 µM
Description: (§1) T47D (ATCC HTB-133) was purchased from Biomedia (Thailand) Co., LTD. L929 (ATCC CCL-1) was received as a gift from Prof. Tanapat Palaga, Department of Microbiology, Faculty of Science, Chulalongkorn University, Bangkok, Thailand. The cells were cultured in Dulbecco's Modified Eagle's Medium (DMEM; Gibco) supplemented with 10% fetal bovine serum (FBS; HyClone), 100 U mL^−1 penicillin and 100 µg mL^−1 streptomycin (Gibco) at 37 °C with 5% CO2.
(§2) The antiproliferative activity was determined by MTT assay. Briefly, the cells were plated into a 96-well microplate at the density of 10 000 cells per well. The cells were allowed to grow overnight before treated with the solutions of compounds in culture medium at the designated concentrations for 48 hours. The medium was then replaced with MTT solution (0.5 mg mL^−1 MTT in culture medium) and incubated for 3 hours. A 100 µL of DMSO was used to dissolve the produced formazan. Absorbance at 570 nm was then measured using a microplate reader (Varioskan™ LUX multimode microplate reader, Thermo Scientific™). Percent viability was calculated relative to the vehicle control (DMSO).

Human CYP19 (aromatase) = target: T1, Human CYP19 (aromatase) (Homo sapiens, UniProt P11511); test: Aromatase inhibition assay (DBF fluorometric substrate); assay type: biochemical; settings: active defined as IC50 < 12.5 µM
T1 construct: purchased GENTEST, Woburn, MA 456260; host or cells: baculovirus/insect cells
T1 sequence (P11511 1-503): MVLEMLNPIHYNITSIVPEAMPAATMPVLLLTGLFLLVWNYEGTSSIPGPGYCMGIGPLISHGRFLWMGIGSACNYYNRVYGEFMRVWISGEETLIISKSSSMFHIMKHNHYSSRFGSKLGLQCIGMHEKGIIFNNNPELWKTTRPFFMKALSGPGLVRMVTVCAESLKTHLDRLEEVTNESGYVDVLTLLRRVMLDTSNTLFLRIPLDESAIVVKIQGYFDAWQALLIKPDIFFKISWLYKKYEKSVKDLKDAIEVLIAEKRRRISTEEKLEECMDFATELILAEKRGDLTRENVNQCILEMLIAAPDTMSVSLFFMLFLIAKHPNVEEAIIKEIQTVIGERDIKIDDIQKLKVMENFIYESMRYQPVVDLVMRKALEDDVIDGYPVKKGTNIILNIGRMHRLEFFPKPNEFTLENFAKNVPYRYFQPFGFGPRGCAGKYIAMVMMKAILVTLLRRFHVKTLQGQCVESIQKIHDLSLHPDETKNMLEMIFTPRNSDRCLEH
Description: Aromatase enzyme was purchased from GENTEST, Woburn, MA01801, USA (Supersom human CYP19+oxidoreductase, baculovirus/insect cell-expressed; Product No. 456260). The aromatase inhibitory activity was performed using Human CYP19 enzymes and DBF as a fluorometric substrate as described by Stresser, et al.[41] with minor modifications. The mixture, containing 100 µL of cofactor/serial dilution buffer was pre-incubated in 37 °C for 10 min. […] After incubation at 37 °C for 30 min, the reaction was stopped by addition of 50 µL of 2.2 M NaOH. Fluorescence signal was monitored using an excitation wavelength of 490 nm and emission wavelength of 530 nm.

[2] = Cytotoxicity MTT assay, L929; assay type: cell-based, mouse; settings: mouse, L929 fibroblast cells; MTT, 48 hours
Description: as §1, §2

[3] = tested on: L929 normal mouse fibroblast cell line; test: Cytotoxicity MTT assay, L929; assay type: cell-based; settings: IC50 (L929)/IC50 (T47D)
Description: as §1, §2

[4] = tested on: NCI60 human cell line panel; test: NCI60 one-dose screen; assay type: cell-based; settings: 10 µM single dose
Description: The one-dose experimental protocol followed the method described in this literature.[28] First, all compounds were tested at a single concentration (10 µM) across the entire NCI60 panel. The results of this assay indicate the growth relative to no-drug control and the number of cells at time zero. This method allows for the detection of growth inhibition (values between 0 to 100) and lethality (value below 0).

IC50 (Human CYP19 (aromatase)) | aromatase inhibition (Human CYP19 (aromatase)) | Compound | activity against T47D in two-dose screen [1] | further results
 |  | N.N.[Cl][Pt][Cl] [Cisplatin, reference compound] |  | IC50 [1]: > 100 µM
11.3 ± 1.7 µM |  | O=C(N/N=C/c1ccco1)c1[nH]c2ccc(Br)cc2c1-c1ccccc1 [Derivative 1a, reference compound] |  | 
> 12.5 µM | lacked aromatase inhibition | O=C(N/N=C/c1cccs1)c1[nH]c2ccc(Br)cc2c1-c1ccccc1 [Derivative 2a, reference compound] |  | 
0.018 ± 0.002 µM |  | CCOC(=O)c1cc[nH]c1/C=N/NC(=O)c1[nH]c2ccc(Br)cc2c1-c1ccccc1 [Derivative 3k, Ethyl (E)-2-((2-(5-bromo-3-phenyl-1H-indole-2-carbonyl)hydrazono)methyl)-1H-pyrrole-3-carboxylate] |  | IC50 at 48 h [2]: 15 ± 8.9 µM; Selectivity index (SI) [3]: 1.42; NCI mean (mean growth percentage over the panel) [4]: 49%; IC50 ([1]; Homo sapiens, T47D): 10.6 ± 1.1 µM
> 12.5 µM | inactive against aromatase | O=C(O)c1ccc(/C=N/NC(=O)c2[nH]c3ccc(Br)cc3c2-c2ccccc2)[nH]1 [Derivative 3l, (E)-5-((2-(5-Bromo-3-phenyl-1H-indole-2-carbonyl)hydrazono)methyl)-1H-pyrrole-2-carboxylic acid] | weak activity | growth inhibition in the single dose experiment [4]: mild effects
> 12.5 µM | inactive against aromatase | O=C(O)c1c[nH]c(/C=N/NC(=O)c2[nH]c3ccc(Br)cc3c2-c2ccccc2)c1 [Derivative 3m, (E)-5-((2-(5-Bromo-3-phenyl-1H-indole-2-carbonyl)hydrazono)methyl)-1H-pyrrole-3-carboxylic acid] | weak activity | growth inhibition in the single dose experiment [4]: mild effects
1.6 ± 0.4 µM |  | O=C(N/N=C/c1cc(C(=O)N2CCOCC2)c[nH]1)c1[nH]c2ccc(Br)cc2c1-c1ccccc1 [Derivative 3o, (E)-5-Bromo-N′-((4-(morpholine-4-carbonyl)-1H-pyrrol-2-yl)methylene)-3-phenyl-1H-indole-2-carbohydrazide] |  | IC50 at 48 h [2]: 43.2 ± 9.9 µM; NCI mean (mean growth percentage over the panel) [4]: 45%; IC50 ([1]; Homo sapiens, T47D): 14.9 ± 1 µM
> 12.5 µM | inactive against aromatase | O=C(O)c1cc(/C=N/NC(=O)c2[nH]c3ccc(Br)cc3c2-c2ccccc2)c[nH]1 [Derivative 3w, (E)-4-((2-(5-Bromo-3-phenyl-1H-indole-2-carbonyl)hydrazono)methyl)-1H-pyrrole-2-carboxylic acid] | weak activity | 
3.7 ± 0.6 µM |  | O=C(N/N=C/c1c[nH]c(C(=O)N2CCOCC2)c1)c1[nH]c2ccc(Br)cc2c1-c1ccccc1 [Derivative 3x, (E)-5-Bromo-N′-((5-(morpholine-4-carbonyl)-1H-pyrrol-3-yl)methylene)-3-phenyl-1H-indole-2-carbohydrazide] | weak activity | 
